System: Prostate cancer cells (i.e., JHU31)
Experiment: Cancer cell viability, MTS assay, DOX-loaded nanoparticles
Format: cell-based
Settings: 37° C., 24 hours; nanoparticles 500 μg/ml
Protocol: In order to investigate the pharmacological activity of the in vitro released DOX from the functionalized copolymer magnetic nanoparticles, cancer cell viability was conducted using MTS assays (Promega) according to the manufacturer's instruction. Prostate cancer cells (i.e., JHU31) were cultured to confluence, harvested by trypsinization, and dispersed in RPMI supplemented with 10% serum and 1% penicillin-streptomycin. Cells were seeded at a density of approximately 10,000 cells/well in 24-well plates for 24 hours at 37° C., and then were then incubated with nanoparticles, DOX-loaded nanoparticles, and free DOX. The concentration of functionalized copolymer magnetic nanoparticles and DOX-loaded functionalized copolymer magnetic nanoparticles was 500 μg/ml. This nanoparticle concentration was selected according to drug release results from the nanoparticles indicated above and the optimal inhibition dose of DOX on prostate cancer cell growth studies. The prostate cancer cells were incubated with each group at 37° C., 41° C., and temperature cycles between 37° C. and 41° C. (one hour at each temperature for one cycle) for 24 hours.

In the case of COc1cccc2c1C(=O)c1c(O)c3c(c(O)c1C2=O)C[C@@](O)(C(=O)CO)C[C@@H]3O[C@H]1C[C@H](N)[C@H](O)[C@H](C)O1 [DOX, doxorubicin], the “cell viability in comparison to the control” value is reported as 20%.
